Assay results taken from ChEMBL document CHEMBL4325844, “Development of 2-amino-4-phenylthiazole analogues to disrupt myeloid differentiation factor 88 and prevent inflammatory responses in acute lung injury” (Eur J Med Chem, 2019).
Activity calls are given as the source filed them. No cut-off for these calls is given here.

Assays:
[1] = molecular target: Myeloid differentiation primary response protein MyD88 (Homo sapiens, UniProt Q99836); experiment: Inhibition of LPS-induced HA-tagged MyD88 (unknown origin) interaction with FLAG-tagged MyD88 (unknown origin) expressed in HEK293 cells at 20 uM after 48 hrs by co-immunoprecipitation method; type: cell-based
Mus musculus [2] = experiment: Antiinflammatory activity in LPS-induced C57/BL6 mouse model of acute lung injury assessed as reduction in thicken alveolar septa at 10 mg/kg, ip pretreated for 30 mins followed by LPS challenge measured after 6 hrs by hematoxylin and eosin staining based microscopic analysis; type: functional, organism-based
Peritoneal macrophage [3] = experiment: Antiinflammatory activity in ICR mouse primary peritoneal macrophages assessed as inhibition of LPS-induced IL-6 production preincubated for 2 hrs followed by LPS stimulation and measured after 22 hrs by ELISA; type: functional, cell-based
Mus musculus [4] = experiment: Antiinflammatory activity in LPS-induced C57/BL6 mouse model of acute lung injury assessed as reduction in neutrophil inflammatory infiltration at 10 mg/kg, ip pretreated for 30 mins followed by LPS challenge measured after 6 hrs by F4/80/hematoxylin staining based microscopic analysis; type: functional, organism-based
Mus musculus [5] = experiment: Antiinflammatory activity in LPS-induced C57/BL6 mouse model of acute lung injury assessed as reduction in IL6 level in serum at 10 mg/kg, ip pretreated for 30 mins followed by LPS challenge measured after 6 hrs by ELISA; type: functional, organism-based
[6] = Cytotoxicity against rat NRK cells assessed as cell viability at 20 uM after 24 hrs by MTT assay relative to control; type: cell-based; conditions: read-out: Activity
Peritoneal macrophage [7] = experiment: Antiinflammatory activity in ICR mouse primary peritoneal macrophages assessed as inhibition of LPS-induced TNFalpha production preincubated for 2 hrs followed by LPS stimulation and measured after 22 hrs by ELISA; type: functional, cell-based
Mus musculus [8] = experiment: Antiinflammatory activity in LPS-induced C57/BL6 mouse model of acute lung injury assessed as reduction in lung wet/dry ratio at 10 mg/kg, ip pretreated for 30 mins followed by LPS challenge measured after 6 hrs; type: functional, organism-based
[9] = molecular target: Myeloid differentiation primary response protein MyD88 (Mus musculus) (UniProt P22366); experiment: Inhibition of MyD88 in ICR mouse primary peritoneal macrophages assessed as reduction in LPS-induced p38 MAPK phosphorylation at 20 uM preincubated for 30 mins followed by LPS-stimulation and measured after 20 mins by Western blot analysis
Peritoneal macrophage [10] = experiment: Potency index, ratio of TJ-M2010-5 IC50 to test compound IC50 for inhibition of LPS-induced TNFalpha production in ICR mouse primary peritoneal macrophages; type: functional

Myeloid differentiation primary response protein MyD88, sequence (Q99836 whole entry): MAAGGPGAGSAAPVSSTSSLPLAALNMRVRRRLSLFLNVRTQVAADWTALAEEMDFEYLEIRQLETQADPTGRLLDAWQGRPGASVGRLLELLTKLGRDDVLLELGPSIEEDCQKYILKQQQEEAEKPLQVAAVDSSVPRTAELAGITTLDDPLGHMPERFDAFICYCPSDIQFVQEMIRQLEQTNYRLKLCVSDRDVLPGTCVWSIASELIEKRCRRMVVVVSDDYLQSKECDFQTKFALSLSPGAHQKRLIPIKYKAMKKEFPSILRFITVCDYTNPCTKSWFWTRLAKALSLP
Myeloid differentiation primary response protein MyD88 (Mus musculus), sequence (P22366 whole entry): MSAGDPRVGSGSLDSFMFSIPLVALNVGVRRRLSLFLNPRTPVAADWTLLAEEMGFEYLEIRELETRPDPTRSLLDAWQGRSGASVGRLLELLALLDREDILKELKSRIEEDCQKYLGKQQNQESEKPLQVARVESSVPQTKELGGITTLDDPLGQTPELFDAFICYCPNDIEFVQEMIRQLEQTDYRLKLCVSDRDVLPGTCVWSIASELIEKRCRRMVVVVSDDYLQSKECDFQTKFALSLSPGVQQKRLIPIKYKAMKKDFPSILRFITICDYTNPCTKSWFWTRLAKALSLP

For COc1cc(-c2csc(NC(=O)CCN3CCN(Cc4cccc([N+](=O)[O-])c4)CC3)n2)ccc1O, the inhibition [1] was “Active”, the Activity (Mus musculus [2]) was “Active” and the IC50 (Peritoneal macrophage [3]) was 2.52 µM. The inhibition (Peritoneal macrophage [3]) was “Dose-dependent effect”, the Activity (Mus musculus [4]) was “Active” and the Activity (Mus musculus [5]) was “Active”. For the same molecule, the viability at 24 h, 20 µM [6] was greater than 80%, the IC50 (Peritoneal macrophage [7]) was 0.89 µM and the inhibition (Peritoneal macrophage [7]) was “Dose-dependent effect”. The Activity (Mus musculus [8]) was “Active”, the inhibition [9] was “Active” and the “Ratio IC50” value (Peritoneal macrophage [10]) was 13.
